Results reported in patent EP0847397B1, “WATER-SOLUBLE C-RING ANALOGUES OF 20 (S)-CAMPTOTHECIN” (DR. REDDY'S RESEARCH FOUNDATION, priority 1996, dated 1997).

Key:
[1] = tested on: NCI's 60 human tumor cell line assay; experiment: cells; type: cell-based; conditions: 60 cell, 48 h, read-out: IC50 (mean GI50 against NCI's 60 human tumor cell line assay)
Procedure: Each test compound was screened against a battery of 60 human cell lines obtained from eight organs. In a typical procedure, the cell suspensions that were diluted according to the particular cell type and the expected target cell density (5000-40,000 cells per well based on cell growth characteristics) were added into 96-well microtiter plates. Inoculates were allowed a preincubation period of 24h at 37°C. for stabilization. Dilutions at twice the intended test concentrations were added at time zero in 100-µl aliquots to microtiter plate wells. Usually test compounds were evaluated at five 10-fold dilutions. The highest well concentration used in the test is 10^-4M. The cells are then incubated in the presence of drug (the test compound) for further 48h in 5% CO2 atmosphere and 100% humidity. At the end of this time, the adherent cells are fixed to the plate by means of trichloroacetic acid, and after a number of washes, the cell layer is treated with the protein stain Sulforhodamine B. The optical density which is proportional to protein mass, is then read by automated spectrophotometric plate readers at a wavelength of 515 nm. Readings are transferred to a microcomputer and final reports are generated using especially developed software.

[2] = Lactone stability in whole blood (HPLC); type: in vitro ADME; conditions: 100 μM, 37°C, lactone peak area relative to zero time (100%); for Lactone Stability in Whole Blood (after 3 hours): 180 min
Procedure: 2. Lactone Stability in whole blood:
2 ml of blood from a healthy volunteer was collected in a tube containing 40 µl of heparin (572 IU) to prevent coagulation, 4 mM and 40 µM working solutions of the drug in DMSO were prepared and added to aliquots of whole blood to give final concentration of 100 µM and 1 µM respectively. The drug is incubated in whole blood at 37°C and 20 µl samples are collected into 180 µl of chilled methanol (-30°C) at different time intervals (0, 1, 2 & 3 hrs). Vortex and then centrifuge at 11000 rpm for 3 min in a microcentrifuge at room temperature. Dilute 100 µl of the supernatant with water to 300-500 µl depending upon the signal response (UV for 100 µM concentration and fluoroscence for 1 µM concentration) of the compound. 200 µl of the diluted sample is injected on to the HPLC column previously equilibrated with the mobile phase. The area under peak corrsponding to lactone forms is measured. Zero time peak area is taken as 100%, and the proportion of lactone peak area at different time points is calculated to determine the equilibrium lactone stability as obtained by consistent lactone proportion over two successive time points. (Biochemistry, 1994; 33:10325-10336 and J. Pharm. Sci., 1995; 84:518-519).

Compound | mean GI50 [1] [µM] | other results
CCc1c2c(nc3ccccc13)-c1cc3c(c(=O)n1C2OCCN1CCCCC1)COC(=O)[C@]3(O)CC (stereo partly drawn) [7-Ethyl-5-piperidinoethoxy camptothecin] | > 30 | 
CC[C@@]1(O)C(=O)OCc2c1cc1n(c2=O)C(OCC(F)(F)F)c2cc3cc(O)ccc3nc2-1 (single isomer, unassigned) [Example 27 Diastereomer A, 10-Hydroxy-5-trifluoroethoxycamptothecin] |  | Lactone Stability in Whole Blood (after 3 hours) [2]: 4.58±1.72
CC[C@@]1(O)C(=O)OCc2c1cc1n(c2=O)C(OCCN)c2cc3ccccc3nc2-1 (stereo partly drawn) [Example 36, 5-(2'-aminoethoxy) camptothecin] | 30 | 
CC[C@@]1(O)C(=O)OCc2c1cc1n(c2=O)C(OCCCl)c2cc3ccccc3nc2-1 (stereo partly drawn) [Example 24, 5-(2'-Chloroethoxy)camptothecin] | 4.57 | 
CC[C@@]1(O)C(=O)OCc2c1cc1n(c2=O)C(OCCOC)c2cc3c([N+](=O)[O-])cccc3nc2-1 (stereo partly drawn) [9-Nitro-5-methoxyethoxy camptothecin] | 2.04 | 
CC[C@@]1(O)C(=O)OCc2c1cc1n(c2=O)C(OCC(F)(F)F)c2cc3cc(O)ccc3nc2-1 (single isomer, unassigned) [Example 27 Diastereomer B, 10-Hydroxy-5-trifluoroethoxycamptothecin] |  | Lactone Stability in Whole Blood (after 3 hours) [2]: 11.9±2.91
CCc1c2c(nc3ccccc13)-c1cc3c(c(=O)n1C2OCCCl)COC(=O)[C@]3(O)CC (stereo partly drawn) [Example 40, 5-(2'-chloroethoxy)-7-ethylcamptothecin] | 2.75 | 
CC[C@@]1(O)C(=O)OCc2c1cc1n(c2=O)C(OC)c2cc3ccccc3nc2-1 (stereo partly drawn) [Example 1, 5-methoxycamptothecin] | 8.5 | 
CCOC1c2c(nc3cccc(OC)c3c2CC)-c2cc3c(c(=O)n21)COC(=O)[C@]3(O)CC (stereo partly drawn) [Example 7, 5-Ethoxy-9-methoxy-7-ethylcamptothecin] | 2.13 | 
CCc1c2c(nc3ccccc13)-c1cc3c(c(=O)n1C2OCCN(C)C)COC(=O)[C@]3(O)CC (stereo partly drawn) [Example 41, 5-(2'-dimethylaminoethoxy)-7-ethylcamptothecin] | 13.8 | 
CCOC1c2cc3c(O)cccc3nc2-c2cc3c(c(=O)n21)COC(=O)[C@]3(O)CC (single isomer, unassigned) [Example 11 Diastereomer B, 5-Ethoxy-9-hydroxycamptothecin] |  | Lactone Stability in Whole Blood (after 3 hours) [2]: 6.15±2.53
CC[C@@]1(O)C(=O)OCc2c1cc1n(c2=O)C(OCCO)c2cc3cc(O)ccc3nc2-1 (stereo partly drawn) [Example 33, 5-(2'-Hydroxyethoxy)-10-hydroxycamptothecin] | 8.12 | 
CC[C@@]1(O)C(=O)OCc2c1cc1n(c2=O)C(OCCF)c2cc3ccccc3nc2-1 (stereo partly drawn) [Example 29, 5-(2'-fluoroethoxy)camptothecin] | 1.58 | 
CCOC1c2c(nc3ccccc3c2CC)-c2cc3c(c(=O)n21)COC(=O)[C@]3(O)CC (stereo partly drawn) [Example 3, 5-Ethoxy-7-ethylcamptothecin] | 1.41 | 
CCOC1c2cc3c(OC)cccc3nc2-c2cc3c(c(=O)n21)COC(=O)[C@]3(O)CC (stereo partly drawn) [Example 5, 5-Ethoxy-9-methoxycamptothecin] | 2.45 | 
CCOC1c2cc3cccc([N+](=O)[O-])c3nc2-c2cc3c(c(=O)n21)COC(=O)[C@]3(O)CC (stereo partly drawn) [Example 16, 12-Nitro-5-ethoxycamptothecin] | > 30 | 
CCc1c2c(nc3ccccc13)-c1cc3c(c(=O)n1C2OCCF)COC(=O)[C@]3(O)CC (stereo partly drawn) [Example 31, 5-(2'-Fluoroethoxy)-7-ethylcamptothecin] | 4.36 | 
CCc1c2c(nc3ccccc13)-c1cc3c(c(=O)n1C2OCCCN(C)C)COC(=O)[C@]3(O)CC (stereo partly drawn) [Example 38, 5-(3'-dimethylaminopropoxy)-7-ethylcamptothecin] | > 30 | 
CCc1c2c(nc3ccccc13)-c1cc3c(c(=O)n1C2OCC(F)(F)F)COC(=O)[C@]3(O)CC (stereo partly drawn) [7-Ethyl-5-trifluoroethoxycamptothecin] | 7.41 | 
CCOC1c2cc3c(O)cccc3nc2-c2cc3c(c(=O)n21)COC(=O)[C@]3(O)CC (single isomer, unassigned) [Example 11 Diastereomer A, 5-Ethoxy-9-hydroxycamptothecin] |  | remaining at 3 h, 100 µM ([2]; human, whole blood, read-out: Lactone Stability in Whole Blood (after 3 hours)): 3.73 ± 1.5%
CCOC1c2cc3ccccc3nc2-c2cc3c(c(=O)n21)COC(=O)[C@]3(O)CC (stereo partly drawn) [Example 9, 5-Ethoxycamptothecin] | 9.54 | 
CCCCOC1c2cc3ccccc3nc2-c2cc3c(c(=O)n21)COC(=O)[C@]3(O)CC (stereo partly drawn) [Example 10, 5-butoxycamptothecin] | 6.16 | 
CC[C@@]1(O)C(=O)OCc2c1cc1n(c2=O)C(OC)c2cc3c(N)cccc3nc2-1 (stereo partly drawn) [Example 20, 9-amino-5-methoxycamptothecin] | 6.76 | 
CC[C@@]1(O)C(=O)OCc2c1cc1n(c2=O)C(O)c2cc3cccc([N+](=O)[O-])c3nc2-1 (stereo partly drawn) [Example 23, 12-Nitro-5-hydroxy camptothecin] | > 30 | 
